From PubChem BioAssay (NCI)
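Exposure lasted 48 hours, with cells grown in 96-well plates and compounds tested at five concentrations. TGI is the concentration that stops growth completely.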

Key:
Assay in all cases: NCI-60 cell line screen, 48 h
SNB-19 CNS = system: SNB-19 CNS
BT-549 breast = system: BT-549 breast
NCI-H226 lung = system: NCI-H226 lung
SK-MEL-5 melanoma = system: SK-MEL-5 melanoma
SR leukemia = system: SR leukemia
HS 578T breast = system: HS 578T breast
KM12 colon = system: KM12 colon
SNB-75 CNS = system: SNB-75 CNS
SK-MEL-2 melanoma = system: SK-MEL-2 melanoma
LOX IMVI melanoma = system: LOX IMVI melanoma
OVCAR-4 ovarian = system: OVCAR-4 ovarian
MDA-N = system: MDA-N
A498 renal = system: A498 renal
HCT-15 colon = system: HCT-15 colon
ACHN renal = system: ACHN renal
MALME-3M melanoma = system: MALME-3M melanoma
MOLT-4 leukemia = system: MOLT-4 leukemia
HT29 colon = system: HT29 colon
RPMI-8226 leukemia = system: RPMI-8226 leukemia
MDA-MB-435 = system: MDA-MB-435

SMILES	TGI (SNB-19 CNS) [µM]	TGI (BT-549 breast) [µM]	TGI (NCI-H226 lung) [µM]	TGI (SK-MEL-5 melanoma) [µM]	TGI (SR leukemia) [µM]	TGI (HS 578T breast) [µM]	TGI (KM12 colon) [µM]	TGI (SNB-75 CNS) [µM]	TGI (SK-MEL-2 melanoma) [µM]	TGI (LOX IMVI melanoma) [µM]	TGI (OVCAR-4 ovarian) [µM]	TGI (MDA-N) [µM]	TGI (A498 renal) [µM]	TGI (HCT-15 colon) [µM]	TGI (ACHN renal) [µM]	TGI (MALME-3M melanoma) [µM]	TGI (MOLT-4 leukemia) [µM]	TGI (HT29 colon) [µM]	TGI (RPMI-8226 leukemia) [µM]	TGI (MDA-MB-435) [µM]
Cc1cc(C)c(C[C@H]2COC(=O)[C@]2(O)Cc2c(C)cc(C)cc2C)c(C)c1	39.4	35.2	33.7	39.6	> 100	38.5	37.1	43.6	40.2	36.1	28.3	44.4	30.9	36.2	35.7	29.9	> 100	> 100	77.7	37
CC(C)N(C(=O)C1(O)c2ccccc2C=Cc2ccccc21)C(C)C	44.4	34.6	35.8	29.8	63	68.8	49.7		30.7		52	37.9	29.8	44.6	29.5	31.5	82.8	33.5	> 100	> 100
[N-]=[N+]=NC1C(O)C(CO)OC1n1ccc(=O)[nH]c1=O (configuration not stated)	> 875	> 875	> 875	> 875	> 875	> 875	> 875	> 875	> 875	> 875	> 875	> 875	> 875	> 875	> 875	> 875	> 875	> 875	> 875	> 875
CCN1CCC(O)(/C=C/c2ccc(C)cc2)C(C(=O)/C=C/c2ccc(C)cc2)C1 (configuration not stated)	23.5	13.7	29	9.85	6.84	7.55	5.16	22	15.9	2.59	23	10.3	24.6	16.2	14.7	14.8	4.59	6.89	10.8	8.75
O=C(Oc1ccccc1)N1c2ccccc2[C@@]23O[C@]24CCC[C@H]3C#C/C=C\C#C[C@H]14	29.1	25.5	38.1		41.1	47.1	26.4	23.3	25.5	25.6	23.3	26.9	27.6	25.9		22.1	> 100	23.2	32.9	36.7
O=C(Nc1nncs1)NS(=O)(=O)n1c(=S)sc2ccccc21	> 100	> 100		> 100	> 100	> 100	> 100	> 100	> 100	> 100	> 100	> 100	> 100	> 100	> 100	> 100	> 100	> 100	> 100	> 100
COC(=O)CC1C=CC(C)(OC)OO1 (configuration not stated)	> 100	> 100	> 100	> 100	> 100	> 100	> 100	> 100	> 100	> 100	> 100	> 100	> 100	> 100	> 100	> 100		> 100	> 100	> 100
CN(C)c1ccc(/C=N\NC(=O)Nc2cccc3ccccc23)cc1	7.5	72.4	9.06	18.6	> 100	23.1	> 100	32.3	35.7	22.1	40.4	12	64.8	7.23	38.5	27.4	> 100	> 100	> 100	48.3
CC(C(=O)OCc1ccccc1)(c1ccco1)N1C(=O)OC(c2ccccc2)C1c1ccccc1 (configuration not stated)	> 100	> 100	> 100	> 100	> 100	> 100	> 100	> 100	> 100	> 100	> 100	> 100	> 100	> 100	> 100	> 100	> 100	> 100	> 100	> 100
CC(=O)N(CCc1ccccc1)C(C#N)c1ccccc1 (configuration not stated)	> 100	> 100	> 100	> 100	> 100	> 100	> 100	> 100	> 100	> 100	> 100	> 100	> 100	> 100	> 100	> 100	> 100	> 100	> 100	> 100
CCC(C)C1NC(=O)C(NC(=O)c2c3[nH]c4c(C(=O)NC5C(=O)NC(C(C)CC)C(=O)N6CCCC6C(=O)N(C)CC(=O)N(C)C(C(C)C)C(=O)OC5C)ccc(C)c4oc-3c(C)c(=O)c2=O)C(C)OC(=O)C(C(C)C)N(C)C(=O)CN(C)C(=O)C2CCCN2C1=O (configuration not stated)	> 100	> 72.4	> 51.6	> 100	4	37.8	> 56.7	32.9	17.2	> 53.4	> 89.1	33	39.4	> 100	65.2	22.8	> 39.8	29.2	35.1	> 71.6
O=C1c2cccc3cccc(c23)C2NCCCN12 (configuration not stated)	> 100	> 100	> 100	> 100	> 100	> 100	> 100	89.5		> 100	> 100	> 100	> 100	> 100	> 100	> 100	> 100	> 100		> 100
